Reference: patent publication US8906929B2, “Inhibitors of human immunodeficiency virus replication” (priority 2012, dated 2014)
Read-outs that look alike come from different tables or passages of the source.

Key:
[1] = rcm bond, DCE
[2] = rcm bond, Hoveyda-Grubbs II, DCE
[3] = test system: recombinant NL-Rluc virus; assay: Inhibition of HIV replication (NL-RLuc virus in MT-2 cells, luciferase readout); format: cell-based; conditions: 5 days of incubation, 10% FBS
[4] = Human immunodeficiency virus 1, MT2, 120 h

Compound COC(=O)[C@@H](OC(C)(C)C)c1c(C)nc2cc3nn2c1-c1cc(F)c2c(c1)N(CC=CCCc1ccccc1-c1cccc-3c1)CCO2 has a ring closure, isolated yield ([1]; from C=CCCc1ccccc1-c1cccc(-c2cc3nc(C)c([C@H](OC(C)(C)C)C(=O)OC)c(-c4cc(F)c5c(c4)N(CC=C)CCO5)n3n2)c1, 18-membered ring, Hoveyda-Grubbs II, 8.3 mM, 70.0 °C, 18.0 h) of 54.5%.

COC(=O)[C@@H](OC(C)(C)C)c1c(C)nc2cc3nn2c1-c1ccc2c(c1)C(CC=CCOc1ccccc1-c1cccc-3c1)CCO2 (some centres unmarked) showed a ring closure, isolated yield ([1]; from C=CCOc1ccccc1-c1cccc(-c2cc3nc(C)c([C@H](OC(C)(C)C)C(=O)OC)c(-c4ccc5c(c4)C(CC=C)CCO5)n3n2)c1, 18-membered ring, Hoveyda-Grubbs II, 2.06 mM, 70.0 °C, 3.0 h) of 84%.

Work on COC(=O)[C@@H](OC(C)(C)C)c1c(C)nc2cc3nn2c1-c1ccc2c(c1Cl)N(CC=CCCCOc1ccccc1-c1cccc-3c1)CCO2 yielded a ring closure, isolated yield ([1]; from C=CCCCOc1ccccc1-c1cccc(-c2cc3nc(C)c([C@H](OC(C)(C)C)C(=O)OC)c(-c4ccc5c(c4Cl)N(CC=C)CCO5)n3n2)c1, 20-membered ring, Hoveyda-Grubbs II, 27.0 mM, 50.0 °C, 3.0 h) of 53.4%.

Work on COC(=O)[C@@H](OC(C)(C)C)c1c(C)nc2cc3nn2c1-c1ccc2c(c1Cl)N(CC=CCCc1ccccc1-c1cccc-3c1)CCO2 yielded a ring closure, isolated yield ([1]; from C=CCCc1ccccc1-c1cccc(-c2cc3nc(C)c([C@H](OC(C)(C)C)C(=O)OC)c(-c4ccc5c(c4Cl)N(CC=C)CCO5)n3n2)c1, 18-membered ring, Hoveyda-Grubbs II, 70.0 °C, 4.0 h) of 73% and a ring closure, yield after HPLC ([2]; from C=CCCc1ccccc1-c1cccc(-c2cc3nc(C)c([C@H](OC(C)(C)C)C(=O)OC)c(-c4ccc5c(c4Cl)N(CC=C)CCO5)n3n2)c1, 18-membered ring, 28.0 mM, 50.0 °C, 1.0 h) of 26.5%.

COC(=O)[C@@H](OC(C)(C)C)c1c(C)nc2cc3nn2c1-c1ccc2c(c1Cl)N(CC=CCOc1cccc(c1)-c1cccc-3c1)CCO2 showed a ring closure, yield after HPLC ([2]; from C=CCOc1cccc(-c2cccc(-c3cc4nc(C)c([C@H](OC(C)(C)C)C(=O)OC)c(-c5ccc6c(c5Cl)N(CC=C)CCO6)n4n3)c2)c1, 19-membered ring, then NaOH, 29.0 mM, 50.0 °C, 5.0 h, 2 steps) of 26.6%.

For COC(=O)[C@@H](OC(C)(C)C)c1c(C)nc2cc3nn2c1N1CCC(C)(CC1)COCC=CCCc1ccccc1-c1cccc-3c1, the ring closure, isolated yield ([1]; from C=CCCc1ccccc1-c1cccc(-c2cc3nc(C)c([C@H](OC(C)(C)C)C(=O)OC)c(N4CCC(C)(COCC=C)CC4)n3n2)c1, 20-membered ring, Hoveyda-Grubbs II (10 mol%), 1.23 mM, 70.0 °C, 3.0 h) was 98%.

Work on COC(=O)[C@@H](OC(C)(C)C)c1c(C)nc2cc3nn2c1N1CCC(C)(CC1)OCC=CC(C)Oc1ccccc1-c1cccc-3c1 (some centres unmarked) yielded a ring closure, yield after HPLC ([2]; from C=CCOC1(C)CCN(c2c([C@H](OC(C)(C)C)C(=O)OC)c(C)nc3cc(-c4cccc(-c5ccccc5OC(C)C=C)c4)nn23)CC1, 19-membered ring, 1.28 mM, 2.0 h) of 98%.

In the case of COC(=O)[C@@H](OC(C)(C)C)c1c(C)nc2cc3nn2c1N1CCC(C)(CC1)OCC=CC[C@@H](C)Oc1ccccc1-c1cccc-3c1, the ring closure, isolated yield ([1]; from C=CCOC1(C)CCN(c2c([C@H](OC(C)(C)C)C(=O)OC)c(C)nc3cc(-c4cccc(-c5ccccc5O[C@H](C)CC=C)c4)nn23)CC1, 20-membered ring, Hoveyda-Grubbs II, 1.43 mM, 2.0 h) is reported as 100%.

COC(=O)[C@@H](OC(C)(C)C)c1c(C)nc2cc3nn2c1N1CCC(C)(CC1)OCC=CC[C@H](C)Oc1ccc(F)cc1-c1cccc-3c1 showed a ring closure, isolated yield ([1]; from C=CCOC1(C)CCN(c2c([C@H](OC(C)(C)C)C(=O)OC)c(C)nc3cc(-c4cccc(-c5cc(F)ccc5O[C@@H](C)CC=C)c4)nn23)CC1, 20-membered ring, Hoveyda-Grubbs II (20 mol%), then NaBH4/MeOH, 5.0 mM, 80.0 °C, 1.5 h, 2 steps) of 38%.

COC(=O)[C@@H](OC(C)(C)C)c1c(C)nc2cc3nn2c1N1CCC(C)(CC1)OCC=CC[C@H](C)Oc1ccccc1-c1cccc-3c1 gave a ring closure, isolated yield ([1]; from C=CCOC1(C)CCN(c2c([C@H](OC(C)(C)C)C(=O)OC)c(C)nc3cc(-c4cccc(-c5ccccc5O[C@@H](C)CC=C)c4)nn23)CC1, 20-membered ring, Hoveyda-Grubbs II, 1.5 mM, 2.0 h) of 70%.

In the case of Cc1cc2c(cc1F)-c1cccc(c1)-c1cc3nc(C)c([C@H](OC(C)(C)C)C(=O)O)c(n3n1)N1CCC(C)(CC1)OCCCC[C@H](C)O2 [Example 91, (2S)-2-(tert-Butoxy)-2-[(22S)-17-fluoro-4,18,22,28-tetramethyl-21,27-dioxa-1,5,7,8-tetraazahexacyclo[26.2.2.1^6,^9.1^10,^14.0^2,^7.0^15,^20]tetratriaconta-2,4,6(34),8,10(33), 11, 13, 15(20),16,18-decaen-3-yl]acetic acid], the EC50 [3, 4] is reported as 0.047 µM.

CCC(C)(C)O[C@H](C(=O)O)c1c(C)nc2cc3nn2c1N1CCC(C)(CC1)OCCCC[C@H](C)Oc1ccc(C)cc1-c1cccc-3c1 [Example 96, (2S)-2-[(2-Methylbutan-2-yl)oxy]-2-[(22S)-4,17,22,28-tetramethyl-21,27-dioxa-1,5,7,8-tetraazahexacyclo[26.2.2.1^6,^9.1^10,^14.0^2,^7.0^15,^20]tetratriaconta-2,4,6(34),8,10(33), 11, 13, 15 (20),16,18-decaen-3-yl]acetic acid] gave an EC50 [3, 4] of 0.036 µM.

Work on Cc1ccc2c(c1)-c1cccc(c1)-c1cc3nc(C)c([C@H](OC4(C)CCC4)C(=O)O)c(n3n1)N1CCC(C)(CC1)OCCCC[C@H](C)O2 [Example 97, (2S)-2-(1-Methylcyclobutoxy)-2-[(22S)-4,17,22,28-tetramethyl-21,27-dioxa-1,5,7,8-tetraazahexacyclo[26.2.2.1^6,^9.1^10,^14.0^2,^7.0^15,^20]tetratriaconta-2,4, 6(34), 8, 10(33), 11, 13, 15 (20),16,18-decaen-3-yl]acetic acid] yielded an EC50 [3, 4] of 0.041 µM.

Cc1nc2cc3nn2c(c1[C@H](OC(C)(C)C)C(=O)O)N1CCC(C)(CC1)OCCCC[C@H](C)Oc1cccc(F)c1-c1cc-3ccc1F [Example 99] showed an EC50 [3, 4] of 0.02 µM.

In the case of Cc1ccc2c(c1)O[C@@H](C)CC=CCOC1(C)CCN(CC1)c1c([C@H](OC(C)(C)C)C(=O)O)c(C)nc3cc(nn13)-c1cccc-2c1 [Example 105, (2S)-2-(tert-Butoxy)-2-[(22S)-4,18,22,28-tetramethyl-21,27-dioxa-1,5,7,8-tetraazahexacyclo[26.2.2.1^6,^9.1^10,^14.0^2,^7.0^15,^20]tetratriaconta-2,4,6(34),8,10(33), 11, 13, 15(20),16,18,24-undecaen-3-yl]acetic acid], the EC50 [3, 4] is reported as 0.028 µM.

In the case of Cc1nc2cc3nn2c(c1[C@H](OC(C)(C)C)C(=O)O)N1CCC(C)(CC1)COCCCCCc1ccccc1-c1cccc-3c1 [Example 106], the EC50 [3, 4] is reported as 0.089 µM.

“(2S)-2-(tert-Butoxy)-2-[(22S)-4,17,22,29-tetramethyl-21,28-dioxa-1,5,7,8-tetraazahexacyclo[27.2.2.1^6,^9.1^10,^14.0^2,^7.0^15,^20]pentatriaconta-2,4, 6(35), 8, 10(34), 11, 13, 15 (20),16,18-decaen-3-yl]acetic acid [Example 65]” showed an EC50 ([3]; read-out: EC50) of 0.043 µM.

Compound “Methyl (2S)-2-(tert-butoxy)-2-[(23E)-4,27-dimethyl-21,26-dioxa-1,5,7,8-tetraazahexacyclo[25.2.2.1^6,^9.1^10,^14.0^2,^7.0^15,^20]tritriaconta-2,4,6(33),8,10(32),11,13,15(20),16,18,23-undecaen-3-yl]acetate” has a ring closure, isolated yield ([1]; 19-membered ring, Hoveyda-Grubbs II, 1.3 mM) of 100%.

Compound “Methyl (2S)-2-(tert-butoxy)-2-[(24E/Z)-4,17,23,28-tetramethyl-21,27-dioxa-1,5,7,8-tetraazahexacyclo[26.2.2.1^6,^9.1^10,^14.0^2,^7.0^15,^20]tetratriaconta-2,4,6(34),8,10(33), 11,13,15 (20),16,18,24-undecaen-3-yl]acetate” has a ring closure, isolated yield ([1]; 20-membered ring, Hoveyda-Grubbs II (7 mol%), 4.0 mM, 85.0 °C) of 70.6%.
